# Measurements reported in patent US8338422B2, “Indolin-2-ones and aza-indolin-2-ones” (Janssen Pharmaceutica NV, priority 2007, dated 2012).
# Key:
# PLK4 (h) = PLK4 (h) (Homo sapiens, UniProt O00444); assay: PLK-4 human kinase assay (SPA); assay type: biochemical; conditions: for IC50: read-out: PLK4 pIC50 (converted)
# Procedure, shortened: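 Radiometric readout: 33P-labelled peptide captured on streptavidin SPA beads after EDTA stop, imaged by Leadseeker. Reaction ran 60 min at room temperature in Hepes pH 8.0 buffer. It contained 1 μM ATP with 2 nM [γ-33P]ATP, 10 μM biotinylated peptide and PLK4 (h) at 19 μg/ml.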
# PC-3 = assay: Cellular proliferation assay (Alamar blue), PC-3; assay type: cell-based; conditions: PC-3 cells, 72 hours with compound, 10% FCS; for IC50: Homo sapiens, PC-3, 72 h, read-out: pIC50 PC-3 (converted)
# Procedure, shortened: (§1)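 Proliferation was assessed over 72 h of compound treatment, following 24 h of seeding without compound, under 10% FCS, 37° C. and 5% CO2. Fluorescent resazurin product was measured and compared with control cells.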
# U87MG = assay: Cellular proliferation assay (Alamar blue), U87MG; assay type: cell-based; conditions: U87MG cells, 72 hours with compound, 10% FCS; for IC50: Homo sapiens, U-87 MG, 72 h, read-out: pIC50 U87MG (converted)
# Procedure, shortened: as §1
# MDA/MB231 = assay: Cellular proliferation assay (Alamar blue), MDA/MB231; assay type: cell-based; conditions: MDA/MB231 cells, 72 hours with compound, 10% FCS; for IC50: Homo sapiens, MDA-MB-231, 72 h, read-out: pIC50 MDA/MB231 (converted)
# Procedure, shortened: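 Seed cells, 24 h, no compound; add compound, 72 h, 10% FCS, 37° C./5% CO2; add resazurin 9 μg/ml with K-ferrocyanide and K-ferricyanide 90 μM each (4 h H460, 24 h MDA-MB-231); read fluorescence 544/590 nm; effect vs control cells.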
# H1299 = assay: Cellular proliferation assay (Alamar blue), H1299; assay type: cell-based; conditions: H1299 cells, 72 hours with compound, 10% FCS; for IC50: Homo sapiens, NCI-H1299, 72 h, read-out: pIC50 H1299 (converted)
# Procedure, shortened: as §1
# CDK1/CyclinB (h) = CDK1/CyclinB (h) (Homo sapiens, UniProt P06493); assay: CDK1/CyclinB human kinase assay (FRET); assay type: biochemical; conditions: for IC50: read-out: CDK1 pIC50 (converted)
# Procedure, shortened: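 Z'-LYTE FRET format: 0.2 μg/ml enzyme with 2 μM Ser/Thr peptide 12 and 10 μM ATP in 50 mM Hepes pH 7.5, 10 mM MgCl2, 1 mM EGTA, 0.01% Brij-35, 60 min at room temperature. Protease development 60 min; coumarin/fluorescein emission ratio (460/538 nm, excitation 390 nm) reports phosphorylation.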
# HCT-116 = assay: Cellular proliferation assay (Alamar blue), HCT-116; assay type: cell-based; conditions: HCT-116 cells, 72 hours with compound, 10% FCS; for IC50: Homo sapiens, HCT-116, 72 h, read-out: pIC50 HCT-116 (converted)
# Procedure, shortened: as §1
# SKOV3 = assay: Cellular proliferation assay (Alamar blue), SKOV3; assay type: cell-based; conditions: 72 hours with compound, 10% FCS; for IC50: Homo sapiens, SK-OV-3, SKOV3 cells, read-out: pIC50 SKOV3 (converted); for pIC50 SKOV3: SKOV3 cells
# Experimental: (§2) […] functional properties of these compounds was tested in cellular proliferation assays on a panel of different cell lines in the presence of 10% FCS serum (37° C. and 5% (v/v) CO2). In a first step these cells were seeded and incubated for 24 hours in the absence of compound. In the second step the cells were incubated for 72 hours with the compounds to be tested for 72 hours. The viable cell number was finally assessed in a standard Alamar blue cell viability assay.
# (§3) The viable cell number was assessed by incubation for either 4 h (HCT-116, H1299, H460) 6 h (SKOV3, HT29, U87-MG, Colo205) or 24 h (A2780, PC3, MDA-MB-231, A549, MCF-7) with Alamar blue (Resazurin 9 μg/ml, K-Ferrocyanide 90 μM K-Ferricyanide 90 μM) and the converted fluorescent product was quantified on a fluorescent plate readed (544 nm/590 nm). Effect of the compounds is calculated as of on control cells.
# AuroraB (h) = AuroraB (h) (Homo sapiens, UniProt Q96GD4); assay: Aurora-B human kinase assay (SPA); assay type: biochemical; conditions: for IC50: read-out: AuroraB pIC50 (converted)
# Procedure, shortened: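 Scintillation proximity assay: AuroraB (h) at 0.5 μg/ml with 3 μM biotinylated peptide, 0.5 μM ATP and 2.2 nM [γ-33P]ATP in 60 mM Hepes pH 7.5, 3 mM MgCl2, 3 mM MnCl2, 2 mM DTT. 60 min at room temperature, EDTA stop, streptavidin PVT beads read on Leadseeker.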
# A2780 = assay: Cellular proliferation assay (Alamar blue), A2780; assay type: cell-based; conditions: A2780 cells, 72 hours with compound, 10% FCS; for IC50: Homo sapiens, A2780, 72 h, read-out: pIC50 A2780 (converted)
# Procedure, shortened: as §1
# GSK3β (h) = GSK3β (h) (Homo sapiens, UniProt P49841); assay: GSK-3β human kinase assay (SPA); assay type: biochemical; conditions: for IC50: read-out: GSK3B pIC50 (converted)
# Procedure, shortened: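 Radiometric SPA read-out: after EDTA stop, biotinylated 33P-labelled peptide bound streptavidin PVT beads and was imaged on Leadseeker. Reaction: 60 min, room temperature, GSK3β (h) at 1 μg/ml, 1 μM substrate peptide, 1 μM ATP with 2 nM [γ-33P]ATP, Tris pH 7.4/MgCl2/DTT buffer.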
# DU-145 = assay: Cellular proliferation assay (Alamar blue), DU-145; assay type: cell-based; conditions: DU-145 cells, 72 hours with compound, 10% FCS; for IC50: Homo sapiens, read-out: pIC50 DU-145 (converted)
# Experimental: as §2, §3
# HT-29 = assay: Cellular proliferation assay (Alamar blue), HT-29; assay type: cell-based; conditions: HT-29 cells, 72 hours with compound, 10% FCS; for IC50: Homo sapiens, read-out: pIC50 HT-29 (converted)
# Experimental: as §2, §3
# MCF-7 = assay: Cellular proliferation assay (Alamar blue), MCF-7; assay type: cell-based; conditions: 72 hours with compound, 10% FCS; for IC50: Homo sapiens, MCF7, MCF-7 cells, read-out: pIC50 MCF-7 (converted); for pIC50 MCF-7: MCF-7 cells
# Experimental: as §2, §3
# H460 = assay: Cellular proliferation assay (Alamar blue), H460; assay type: cell-based; conditions: 72 hours with compound, 10% FCS; for pIC50 H460: H460 cells
# Experimental: as §2, §3
# A431 = assay: Cellular proliferation assay (Alamar blue), A431; assay type: cell-based; conditions: 72 hours with compound, 10% FCS; for pIC50 A431: A431 cells
# Experimental: as §2, §3
# A549 = assay: Cellular proliferation assay (Alamar blue), A549; assay type: cell-based; conditions: A549 cells, 72 hours with compound, 10% FCS; for IC50: Homo sapiens, read-out: pIC50 A549 (converted)
# Experimental: as §2, §3
# SK-N-SH = assay: Cellular proliferation assay (Alamar blue), SK-N-SH; assay type: cell-based; conditions: SK-N-SH cells, 72 hours with compound, 10% FCS; for IC50: Homo sapiens, read-out: pIC50 SK-N-SH (converted)
# Experimental: as §2, §3
# Colo205 = assay: Cellular proliferation assay (Alamar blue), Colo205; assay type: cell-based; conditions: 72 hours with compound, 10% FCS; for IC50: Homo sapiens, COLO 205, Colo205 cells, read-out: pIC50 Colo205 (converted); for pIC50 Colo205: Colo205 cells
# Experimental: as §2, §3
# Chain of AuroraB (h) (Q96GD4 whole entry): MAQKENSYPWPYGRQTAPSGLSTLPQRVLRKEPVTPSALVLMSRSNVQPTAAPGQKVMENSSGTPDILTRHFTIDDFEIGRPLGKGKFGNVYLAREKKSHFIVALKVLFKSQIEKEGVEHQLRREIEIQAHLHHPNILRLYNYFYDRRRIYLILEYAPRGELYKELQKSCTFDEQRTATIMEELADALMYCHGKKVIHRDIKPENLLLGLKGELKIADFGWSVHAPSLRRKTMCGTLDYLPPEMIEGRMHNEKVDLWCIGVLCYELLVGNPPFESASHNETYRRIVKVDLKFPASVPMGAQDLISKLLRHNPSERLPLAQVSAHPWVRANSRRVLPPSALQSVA
# Chain of GSK3β (h) (P49841 whole entry): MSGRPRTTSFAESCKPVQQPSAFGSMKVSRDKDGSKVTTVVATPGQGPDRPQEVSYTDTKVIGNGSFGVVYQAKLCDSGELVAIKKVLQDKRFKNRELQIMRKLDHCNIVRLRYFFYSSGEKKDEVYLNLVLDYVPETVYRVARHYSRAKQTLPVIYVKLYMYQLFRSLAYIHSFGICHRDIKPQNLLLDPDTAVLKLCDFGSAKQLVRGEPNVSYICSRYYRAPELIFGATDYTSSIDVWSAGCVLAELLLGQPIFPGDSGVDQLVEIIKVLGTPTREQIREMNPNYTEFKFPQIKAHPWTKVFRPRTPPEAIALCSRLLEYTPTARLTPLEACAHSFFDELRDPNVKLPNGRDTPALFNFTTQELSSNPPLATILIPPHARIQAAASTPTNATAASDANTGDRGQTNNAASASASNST
# Chain of CDK1/CyclinB (h) (P06493 whole entry): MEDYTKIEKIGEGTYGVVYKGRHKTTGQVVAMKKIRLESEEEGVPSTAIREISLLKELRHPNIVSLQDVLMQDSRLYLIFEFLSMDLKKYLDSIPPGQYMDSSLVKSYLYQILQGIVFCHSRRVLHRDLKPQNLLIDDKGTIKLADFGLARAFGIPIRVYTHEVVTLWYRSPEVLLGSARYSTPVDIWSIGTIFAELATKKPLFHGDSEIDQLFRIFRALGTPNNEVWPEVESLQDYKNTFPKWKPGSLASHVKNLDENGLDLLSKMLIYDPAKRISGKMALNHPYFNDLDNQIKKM
# Chain of CDK1/CyclinB (h) (P14635 whole entry partner): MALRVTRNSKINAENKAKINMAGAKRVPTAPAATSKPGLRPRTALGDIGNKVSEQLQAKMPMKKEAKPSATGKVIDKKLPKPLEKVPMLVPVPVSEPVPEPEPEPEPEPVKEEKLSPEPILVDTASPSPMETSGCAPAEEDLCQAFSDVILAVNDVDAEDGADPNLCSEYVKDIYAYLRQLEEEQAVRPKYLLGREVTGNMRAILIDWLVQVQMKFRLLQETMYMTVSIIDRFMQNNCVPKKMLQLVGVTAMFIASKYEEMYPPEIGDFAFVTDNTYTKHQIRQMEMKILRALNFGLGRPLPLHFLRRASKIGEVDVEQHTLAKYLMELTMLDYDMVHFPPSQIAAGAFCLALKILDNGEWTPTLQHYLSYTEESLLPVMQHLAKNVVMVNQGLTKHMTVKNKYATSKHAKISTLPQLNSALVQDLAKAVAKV
# Chain of PLK4 (h) (O00444 whole entry): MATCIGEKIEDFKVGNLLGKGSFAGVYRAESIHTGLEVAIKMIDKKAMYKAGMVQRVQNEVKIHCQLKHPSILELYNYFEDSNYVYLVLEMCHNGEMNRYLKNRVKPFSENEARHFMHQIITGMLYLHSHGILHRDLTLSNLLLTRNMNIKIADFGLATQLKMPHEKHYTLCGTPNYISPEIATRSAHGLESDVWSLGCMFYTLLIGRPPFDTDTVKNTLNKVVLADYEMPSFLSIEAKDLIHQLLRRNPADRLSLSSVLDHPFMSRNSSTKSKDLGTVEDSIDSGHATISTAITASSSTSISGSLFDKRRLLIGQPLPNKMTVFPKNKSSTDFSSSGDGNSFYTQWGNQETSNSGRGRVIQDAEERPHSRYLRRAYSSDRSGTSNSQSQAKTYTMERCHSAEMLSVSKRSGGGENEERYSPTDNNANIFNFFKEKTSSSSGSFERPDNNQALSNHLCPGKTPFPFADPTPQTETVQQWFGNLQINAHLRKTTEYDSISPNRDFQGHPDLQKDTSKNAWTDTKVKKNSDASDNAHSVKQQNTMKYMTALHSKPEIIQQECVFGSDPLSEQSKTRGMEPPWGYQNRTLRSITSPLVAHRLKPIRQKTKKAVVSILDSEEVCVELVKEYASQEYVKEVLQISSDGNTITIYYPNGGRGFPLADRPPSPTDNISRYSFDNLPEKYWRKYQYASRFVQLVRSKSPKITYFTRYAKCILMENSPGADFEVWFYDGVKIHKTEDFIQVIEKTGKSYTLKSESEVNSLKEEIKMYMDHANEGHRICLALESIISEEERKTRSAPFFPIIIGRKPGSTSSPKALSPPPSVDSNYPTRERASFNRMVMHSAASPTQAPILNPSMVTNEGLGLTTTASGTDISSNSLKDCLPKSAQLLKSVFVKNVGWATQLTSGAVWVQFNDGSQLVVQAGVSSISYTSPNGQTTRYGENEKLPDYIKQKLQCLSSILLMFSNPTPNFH
Compound,IC50 (PLK4 (h)) [µM],IC50 (PC-3) [µM],IC50 (U87MG) [µM],IC50 (H1299) [µM],IC50 (CDK1/CyclinB (h)) [µM],IC50 (SKOV3) [µM],IC50 (AuroraB (h)) [µM],IC50 (A2780) [µM],IC50 (GSK3β (h)) [µM],IC50 (MDA/MB231) [µM],PLK4 pIC50 (PLK4 (h)),pIC50 PC-3 (PC-3),CDK1 pIC50 (CDK1/CyclinB (h)),pIC50 SKOV3 (SKOV3),AuroraB pIC50 (AuroraB (h)),GSK3B pIC50 (GSK3β (h)),further results
CN1CCCNc2ncnc3c2C(=CNc2ccc(N4CCOCC4)c(c2)OCCCCCC1=O)C(=O)N3 (mixture of isomers) [Compound 120],–,–,–,–,–,–,–,–,–,–,6.67,<5,5.86,5.02,5.58,6.73,pIC50 U87MG (U87MG): 5.99; pIC50 MDA/MB231 (MDA/MB231): 5.03; pIC50 H1299 (H1299): 5.68; pIC50 HCT-116 (HCT-116): 5.38; pIC50 A2780 (A2780): 5.95
COc1ccc2cc1OCCCC(=O)N(C(C)C)CCN(C)c1ncnc3c1/C(=C/N2)C(=O)N3 [Compound 32],1.05,1,–,–,–,3.31,–,–,–,–,–,–,–,–,–,–,"IC50 (DU-145): 3.98 µM; IC50 (HT-29): 2.51 µM; IC50 (MCF-7): 1580 nM; IC50 (H460; Homo sapiens, NCI-H460, H460 cells, read-out: pIC50 H460 (converted)): 2340 nM; IC50 (A431; Homo sapiens, A-431, A431 cells, read-out: pIC50 A431 (converted)): 1320 nM; IC50 (A549): 2140 nM; IC50 (SK-N-SH): 1.62 µM; IC50 (Colo205): 2040 nM"
CN1CCN(c2ccc3cc2CN(C)CCCCCC(=O)N(C)CCCNc2ncnc4c2C(=CN3)C(=O)N4)CC1 (mixture of isomers) [Compound 117],–,–,–,–,–,–,–,–,–,–,6.5,<5,<5,<5,<5,5.58,pIC50 U87MG (U87MG): 5.55; pIC50 MDA/MB231 (MDA/MB231): 5.06; pIC50 H1299 (H1299): 5.15; pIC50 A2780 (A2780): 5.63
CN1CCCNc2ncnc3c2C(=CNc2ccc(N4CCOCC4)c(c2)OCCCCC1=O)C(=O)N3 (mixture of isomers) [Compound 121],–,–,–,–,–,–,–,–,–,–,7.22,5.19,6.24,5.78,6.15,7.45,pIC50 U87MG (U87MG): 6.66; pIC50 MDA/MB231 (MDA/MB231): 5.20; pIC50 H1299 (H1299): 6.32; pIC50 HCT-116 (HCT-116): 5.99; pIC50 A2780 (A2780): 6.48
CC(C)N1CCCC(=O)N2CCN(CC2)c2ncnc3c2C(=CNc2ccc(F)c(c2)C1)C(=O)N3 (mixture of isomers) [Compound 30],–,–,–,–,–,–,–,–,–,–,<5,<5,–,<5,–,–,pIC50 DU-145 (DU-145): <5; pIC50 HT-29 (HT-29): <5; pIC50 MCF-7 (MCF-7): <5; pIC50 H460 (H460): <5; pIC50 A431 (A431): <5; pIC50 A549 (A549): <5; pIC50 SK-N-SH (SK-N-SH): <5; pIC50 Colo205 (Colo205): <5
COc1ccc2cc1OCCCC(=O)N(C(C)C)CCCCN(C)c1ncnc3c1C(=CN2)C(=O)N3 (mixture of isomers) [Compound 33],–,–,–,–,–,–,–,–,–,–,5.27,<5,5.14,<5,5,5.33,pIC50 DU-145 (DU-145): <5; pIC50 HT-29 (HT-29): <5; pIC50 MCF-7 (MCF-7): 4.99; pIC50 H460 (H460): <5; pIC50 A431 (A431): <5; pIC50 A549 (A549): <5; pIC50 SK-N-SH (SK-N-SH): 5.27; pIC50 Colo205 (Colo205): <5

# Second part, led by results:
IC50 (PLK4 (h)) [µM],IC50 (PC-3) [µM],IC50 (U87MG) [µM],IC50 (H1299) [µM],IC50 (CDK1/CyclinB (h)) [µM],IC50 (SKOV3) [µM],IC50 (AuroraB (h)) [µM],IC50 (A2780) [µM],IC50 (GSK3β (h)) [µM],Compound,IC50 (MDA/MB231) [µM],PLK4 pIC50 (PLK4 (h)),pIC50 PC-3 (PC-3),CDK1 pIC50 (CDK1/CyclinB (h)),pIC50 SKOV3 (SKOV3),AuroraB pIC50 (AuroraB (h)),GSK3B pIC50 (GSK3β (h)),further results
> 10,> 10,> 10,> 10,> 10,> 10,> 10,> 10,> 10,COc1cc2cc(c1OC)CN(C)CC(=O)N(C)CCNc1ncnc3c1/C(=C/N2)C(=O)N3 [Compound 123],> 10,–,–,–,–,–,–,IC50 (HCT-116): > 10 µM
5.89,> 10,3.24,9.77,> 10,> 10,> 10,3.72,3.09,CN1CCN(c2ccc3cc2CN(C)CCCC(=O)N(C)CCNc2ncnc4c2/C(=C/N3)C(=O)N4)CC1 [Compound 116],5.25,–,–,–,–,–,–,IC50 (HCT-116): 6.46 µM
> 10,–,–,–,–,> 10,–,–,–,COc1ccc2cc1OCCCC(=O)N(C)CCN(C)C1CCN(CC1)c1ncnc3c1/C(=C/N2)C(=O)N3 [Compound 34],–,–,–,–,–,–,–,IC50 (DU-145): > 10 µM; IC50 (HT-29): ~8.32 µM; IC50 (MCF-7): > 10000 nM; IC50 (A549): > 10000 nM; IC50 (SK-N-SH): 5.25 µM; IC50 (Colo205): > 10000 nM
0.851,7.94,0.708,1.2,4.68,8.32,> 10,0.288,0.575,CN1CCN(c2ccc3cc2CN(C)CCCCC(=O)N(C)CCCNc2ncnc4c2/C(=C/N3)C(=O)N4)CC1 [Compound 122],1.95,–,–,–,–,–,–,–
> 10,> 10,> 10,> 10,> 10,> 10,> 10,> 10,> 10,COc1cc2cc(c1OC)CN(C)CCCC(=O)N(C)CCNc1ncnc3c1/C(=C/N2)C(=O)N3 [Compound 118],> 10,–,–,–,–,–,–,IC50 (HCT-116): > 10 µM
